# Measurements published in the NIST ThermoML archive (doi:10.1021/acs.jced.6b00219).
# ± gives the expanded uncertainty stated by the source.
# What was measured:
# [1] = Crystal; DTA
# [2] = Molar enthalpy of transition or fusion; conditions: Crystal; DSC
smiles,measurement,setting,value
"O=[N+]([O-])c1cn[nH]c1[N+](=O)[O-] [3,4-dinitro-1H-pyrazole]",Normal melting temperature,[1],87.83 ± 1.1 °C
same,Molar enthalpy of transition or fusion,[2],2.81 ± 0.203 kcal/mol
